Drawing on a melting point compilation (Tetko et al.; mined from patent text by program, amines drawn as free bases though some values may be those of a salt), this text covers melting point for 36 compounds.

By melting point is commonly meant the temperature of the solid-liquid transition.

As for `CCn1c(=O)c2c(nc(/C=C/c3ccc(O)c(C)c3C)n2C)n(CC)c1=O`, the melting point is 240 to 242 °C. In the case of `O=C(O)COc1ccc2c(-c3ccccc3F)noc2c1I` it was 178 to 180 °C; in that of `N#Cc1ccc(NC(=O)[C@H](CC(=O)O)NCc2ccccc2)cc1`, 178 °C; in that of `O=[N+]([O-])c1cccc(Br)c1CBr`, 61.5 to 63 °C. `Cn1cc(C2=C(c3cn(C)c4ccc(N)cc34)C(=O)NC2=O)c2ccccc21` yielded a melting point of 254 to 256 °C. Turning to `CC(C)Cc1nc2ccc(Br)cc2c(-c2ccccc2)c1CNC(=O)OC(C)(C)C`, the melting point was 193 to 194 °C. For `ON=Cc1cc(Cl)ccc1O`, the melting point was 125 to 126 °C. In the case of `CC(=O)NC[C@H]1CN(c2ccc(-c3ncns3)c(F)c2)C(=O)O1`, the melting point lay in the range of 199 to 200 °C. For `COc1cc(CN(C)CCCOc2ccc(NC(=O)c3cccc4c(=O)c5cccc(OC)c5[nH]c34)cc2)cc(OC)c1OC`, the melting point came out at 186 °C. For `O=Cc1c[nH]c2c1ccc1c3cc(F)ccc3[nH]c12`, the melting point is above 250 °C. In the case of `O=C(CCCCc1ccccc1)Nc1ccc2c(c1O)C(=O)CC2` it was 119 to 121 °C; in that of `CS(=O)(=O)Nc1cc(N)c([N+](=O)[O-])cc1OC1CCCCC1`, 136 to 137 °C. `CC(CO)NC(=O)CCCCC1CCSS1` (stereo unspecified) yielded a melting point of 52 to 56 °C. `CC(C)(C)N1CN(c2ccccc2)C2=NN=CC2=C1N`: the melting point is 174 to 176 °C.

Turning to `CCC(CC)c1nn(-c2ccc(Cl)cn2)cc1CCCOc1c(C)cccc1CC(=O)O`, the melting point lay within 106 to 107 °C. As for `N#Cc1c(Cl)ccc(C(=O)O)c1Cl`, the figure is 230 to 232 °C; as for `COc1cc(C(=O)Nc2c(C)cc3cn[nH]c3c2C(=O)NC(C)C)n(-c2ncccc2Cl)n1`, 148 to 151 °C; as for `OC1(c2cccc3[nH]ccc23)CCN(CCOc2ccccc2)CC1`, 168 °C. In turn, `COc1ccccc1CN1CCCc2cc(OCc3ccccc3)c(OC)cc2C1` returned a melting point of 105 to 106 °C. Compound `CCn1c(Nc2ccc(C)cc2)nnc1[C@@H](C)NS(=O)(=O)c1ccc(Cl)c(Cl)c1` returned a melting point of 93 to 99 °C. In the case of `CCNC[C@H]1CCc2cc(F)cc(-c3c(Cl)cccc3Cl)c2O1` it was above 225 °C. For `COc1cc2ncc(C#N)c(Nc3cc(C)c(C)cc3N)c2cc1OC`, the melting point is 260 to 262 °C. For `COc1cc(Nc2c(C#N)cnc3cc(-c4ccccc4)sc23)c(Cl)cc1Cl`, the melting point lay within 274 to 276 °C. As for `CC(=NNC(=N)N)c1sc(-c2ccc(C(C)(C)C)cc2)nc1C`, the figure is 252 to 253 °C; as for `CCCCCC(=O)c1cc(Cl)ccc1N(CC(=O)OC)S(=O)(=O)c1ccc(C)cc1`, 68 to 70 °C. Consider `COc1cc2nc(N3CCN(C(=O)C=Cc4cccc(C(F)(F)F)c4)CC3)nc(N)c2cc1OC`, for which the melting point lay in the range of 225 to 227 °C. In the case of `O=C(CC(=O)C1CC1)c1cnc2ccccc2n1` it was 113 to 115 °C; in that of `Cc1cc(O)n2nc(CC(=O)O)nc2n1`, 266 to 270 °C; in that of `Cc1c(Cl)ccc2c(=O)n(CCCN3CC=C(c4ccc(Cl)cc4)CC3)c(=O)[nH]c12`, 208 to 210 °C.

For the compound `O=C(Nc1ccsc1)c1ccccc1`, the melting point was 155 to 156 °C. As for `O=C1C(=O)N2CCOc3cc([N+](=O)[O-])cc1c32`, the figure is 230 to 232 °C; as for `Cc1cc(C)c(Nc2nc(C)ccc2S(=O)(=O)c2ccc(OCc3ccc(F)cc3)cc2)c(C)c1`, 178 to 180 °C.

Compound `CCc1cccc2[nH]c(C(=O)O)cc(=O)c12` gave a melting point of 272 to 273 °C. In turn, `O=C(CO)NCCCCCCCCCCNC(=O)CO` returned a melting point of 120 to 122 °C. Consider `N#Cc1ccc(-c2ccccc2OCC2CC2)[nH]c1=O`, for which the melting point lay within 250 to 252 °C.

Compound `COc1cccc(-c2nc(N)nc(Nc3ccc(O)cc3)n2)c1` displayed a melting point of 93.5 to 94 °C.
